Source: US9840494B2, “Quinazoline derivative” (Tianjin Hemay Oncology Pharmaceutical Co., Ltd., priority 2013, dated 2017)

Experiments:
[1] = Bioavailability assay in rats, Experiment IV (dimethylsulfonate); type: in vivo
From the text: Experiment IV Bioavailability Assay for N-[4-(3-chloro-4-fluorophenylamino)-7-(2-methoxyethoxy)quinazolin-6-yl]-2-[1-(2-methoxyethyl)piperidin-4-ylidene]acetamide Dimethylsulfonate in Rats
12 SD rats (half of them were male and half of them were female, 7-10 weeks old, weighting 200-350 g) were purchased from Beijing Vital River Laboratory Animal Technology Co., Ltd., and reared in Animal House, GLP Center, Taiping Road No. 27 courtyard. Production License Number of Beijing Vital River Laboratory Animal Technology Co., Ltd. is SCXK (Beijing) 2009-0002.
Blood (about 0.5 ml) was drawn with glass capillary from the orbital venous plexus at […], 1 h, 2 h, 3 h, 4 h, 6 h, 8 h, 12 h, and 24 h after dosing to each group of animals according to the administration scheme, and put into a heparinized centrifuge tube. The tube was gently shaken up and down, then centrifuged at 3000 r/min for […] at 4° C. The plasma was separated. 50 μl of the plasma was pipetted into a centrifuge tube (5 ml), then 50% methanol aqueous solution (50 μl ) and thienorphine-D4 isotope (50 μl) as an internal standard were added thereto and vortexed. A solution of methanol:acetonitrile=1:3 (volume ratio) was added, vortexed for 30 s so as to mix thoroughly. The resulting mixture was centrifuged at 3000 r/min for 5 mM 500 μL of the supernatant was taken out, to which 500 μl of 20% methanol solution was added for serial dilution. The mixture was vortexed for 30 s so as to mix thoroughly. The mixture was centrifuged at 13000 r/min for 5 mM, and […], of the supernatant was injected for LC/MS/MS assay.
Liquid phase conditions: A: aqueous solution (5 mmol/L ammonium acetate, 0.2% formic acid), B: methanol; column temperature 25° C.; injection volume: 10 μL; gradient elution.
MS conditions: ion source: Turbo Ionspray (ESI+); detection mode: MRM; electrical parameters: compound 1: m/z 544.2-457.1, CE (collision energy): 36.5.
The main pharmacokinetic parameters and oral bioavailability results were calculated by using DAS2.0 (statistical moment).
The pharmacokinetic parameters of statistical moments (n=6) for a single intravenous injection of 5.0 mg/kg in rats
The pharmacokinetic parameters of statistical moments (n=6) for a single intragastric administration of 5.0 mg/kg in rats
Method for the calculation of bioavailability: F=(AUCig×Div)/(AUCiv×Dig)×100%
wherein D is dose; AUC: the area under the plasma drug concentration-time curve; ig represents intragastric administration; and iv represents intravenous injection administration.

[2] = tested on: human pancreatic cancer cell line AsPC-1; assay: In vitro inhibitory action on human tumor cells, AsPC-1 (MTT); type: cell-based; conditions: ASPC1, 72 h, MTT assay, usually 3 days
Description: Human epidermoid carcinoma cell line A431, human non-small cell lung cancer cell line HCC827, head and neck cancer cell lines Fadu and human pancreatic cancer cell line AsPC-1 were purchased from Cell Bank, Chinese Academy of Sciences.
3.2 Cell culture method: cells were cultured in the complete medium at 37° C. under 5% CO2 and saturated humidity until logarithmic growth phase, i.e., adherent cells substantially approach complete confluence, and then collected for subsequent assay. For the adherent cells, they were firstly digested with trypsin/EDTA to detach.
3.3 A certain number of cells were seeded into 96-well cell culture plates (hereinafter referred to as 96-well plates). […] Finally, total cellular protein in the wells was determined using SRB assay, or cell viability was determined with MTT assay.
3.3.1 The cell seeding concentration was determined by cell growth curve assay which completely simulates compound inhibition assay process. […]
3.4 Dilution and addition of compounds: the concentration of DMSO that can be tolerant by the cells was determined by DMSO tolerance assay, and thereby selecting the dilution and addition methods of compounds. The effects of different concentrations of DMSO on cell growth were determined by DMSO tolerance assay. […] Two methods are finally determined as follows. […]

[3] = SD rats, single intragastric administration of 5.0 mg/kg, n=6
[4] = SD rats, single intravenous injection of 5.0 mg/kg, n=6
[5] = both sexes, rat, plasma, po, SD rats, single intragastric administration of 5.0 mg/kg, n=6
[6] = both sexes, rat, plasma, SD rats, single intravenous injection of 5.0 mg/kg, n=6

With `COCCOc1cc2ncnc(Nc3ccc(F)c(Cl)c3)c2cc1NC(=O)C=C1CCN(CCOC)CC1.CS(=O)(=O)O` [Compound 3, N-[4-(3-chloro-4-fluorophenylamino)-7-(2-methoxyethoxy)quinazolin-6-yl]-2-[1-(2-methoxyethyl)piperidin-4-ylidene]acetamide dimethylsulfonate] the “F (bioavailability)” value ([1]; SD rats, 5 mg/kg ig vs 5 mg/kg iv) was 57%, the CLz/F [1, 3] was 4.55 L/h/kg and the t½z [1, 3] was 5.83 h. For the same compound, the CLz [1, 4] was 2.63 L/h/kg, the t½z [1, 4] was 4.06 h and the bioavailability ([1]; both sexes, SD, rat, plasma, oral, 5 mg/kg, 5 mg/kg ig vs 5 mg/kg iv, read-out: F (bioavailability)) was 56.9%. The AUC(0-inf) [1, 5] was 0.902 µg·h/mL, the AUC(0-t) [1, 5] was 0.782 µg·h/mL and the Cmax [1, 5] was 0.0752 µg/mL. It also gave a Tmax [1, 5] of 3.33 h, a Vd/F ([1]; both sexes, rat, plasma, po, SD rats, single intragastric administration of 5.0 mg/kg, n=6, read-out: Vz/F) of 36.9 L/kg and an AUC(0-inf) [1, 6] of 1.46 µg·h/mL. For the same compound, the AUC(0-t) [1, 6] was 1.37 µg·h/mL, the Cmax [1, 6] was 1.22 µg/mL and the Tmax [1, 6] was 0.02 h. It also gave a Vd ([1]; both sexes, rat, plasma, SD rats, single intravenous injection of 5.0 mg/kg, n=6, read-out: Vz) of 15.2 L/kg and an IC50 [2] of 4.3 µM.
